Reference: ChEMBL document CHEMBL5244211, “Current anti-diabetic agents and their molecular targets: A review” (Eur J Med Chem, 2018)

What was measured:
[1] = Clearance in Wistar rat at 1 mg/kg,iv; format: ADME, organism-based; conditions: in vivo
[2] = molecular target: T1, Free fatty acid receptor 1 (Homo sapiens, UniProt O14842); test: Agonist activity at FFAR1 (unknown origin) incubated for 16 hrs by Promoter-luciferase assay
[3] = Oral bioavailability in Wistar rat at 3 mg/kg; format: ADME, organism-based; conditions: in vivo
[4] = molecular target: Free fatty acid receptor 1 (Rattus norvegicus) (UniProt Q8K3T4); test: In vivo agonist activity at FFAR1 in streptozotocin (STZ)-induced Wistar rat assessed as reduction in blood glucose AUC at 1 mg/kg,iv and measured upto 120 mins by OGTT analysis; format: functional, organism-based; set-up: scale not given: the % may be the effect or the level left
[5] = molecular target: Free fatty acid receptor 1 (Rattus norvegicus) (UniProt Q8K3T4); test: In vivo agonist activity at FFAR1 in iv dosed streptozotocin (STZ)-induced Wistar rat model assessed as reduction in blood glucose AUC and measured upto 120 mins by OGTT analysis; format: functional, organism-based
[6] = molecular target: T1, Free fatty acid receptor 1; test: Agonist activity at human GPR40 expressed in HEK293 cells incubated for 1 hrs by calcium flux assay; format: cell-based

T1 sequence (O14842 whole entry): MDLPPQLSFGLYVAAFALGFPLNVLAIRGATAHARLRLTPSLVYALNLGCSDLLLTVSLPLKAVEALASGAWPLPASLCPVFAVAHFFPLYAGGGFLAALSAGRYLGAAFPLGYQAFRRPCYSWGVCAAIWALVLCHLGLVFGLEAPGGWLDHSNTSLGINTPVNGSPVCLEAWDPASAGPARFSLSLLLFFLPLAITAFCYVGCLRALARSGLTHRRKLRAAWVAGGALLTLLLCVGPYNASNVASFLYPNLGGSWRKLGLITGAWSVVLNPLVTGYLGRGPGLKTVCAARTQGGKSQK
Free fatty acid receptor 1 (Rattus norvegicus), sequence (Q8K3T4 whole entry): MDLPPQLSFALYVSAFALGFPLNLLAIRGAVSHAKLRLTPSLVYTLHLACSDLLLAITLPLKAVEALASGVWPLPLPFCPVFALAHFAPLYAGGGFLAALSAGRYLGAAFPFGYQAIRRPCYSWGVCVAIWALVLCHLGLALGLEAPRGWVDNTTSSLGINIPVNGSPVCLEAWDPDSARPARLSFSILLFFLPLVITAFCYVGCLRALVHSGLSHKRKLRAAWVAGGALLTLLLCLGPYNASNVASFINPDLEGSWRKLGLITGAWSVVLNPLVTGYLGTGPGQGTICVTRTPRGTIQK

Structure (SMILES) | clearance [1] [mL/min/kg] | EC50 [2] [nM] | bioavailability [3] [%] | Activity [4] [%] | ED50 [5] [mg/kg] | EC50 [6] [nM]
CC#CC(CC(=O)O)c1ccc(OCc2cccc(CN3CCc4oc(C5CC5)nc4C3)c2)cc1 (stereo unspecified) | 0.27 | 50 | 45 | 46 | 0.09 | 
COc1ccc(F)c(-c2ncc(COc3ccc([C@@H](CC(=O)O)C4CC4)cc3)nc2OCCC(F)(F)F)c1 |  |  |  |  |  | 6
